This note sets out measurements from patent US10414763B2 (CANCER RESEARCH TECHNOLOGY LIMITED, priority 2014, dated 2019).

The target in this test is T1, full-length human PKCι (Homo sapiens, UniProt P41743).
T1 construct: Recombinant, full-length human PKCι expressed in Sf21 insect cells is also commercially available; purchased EMD Millipore; host or cells: Sf21 insect cells (baculovirus)
T1 sequence (P41743 1-596): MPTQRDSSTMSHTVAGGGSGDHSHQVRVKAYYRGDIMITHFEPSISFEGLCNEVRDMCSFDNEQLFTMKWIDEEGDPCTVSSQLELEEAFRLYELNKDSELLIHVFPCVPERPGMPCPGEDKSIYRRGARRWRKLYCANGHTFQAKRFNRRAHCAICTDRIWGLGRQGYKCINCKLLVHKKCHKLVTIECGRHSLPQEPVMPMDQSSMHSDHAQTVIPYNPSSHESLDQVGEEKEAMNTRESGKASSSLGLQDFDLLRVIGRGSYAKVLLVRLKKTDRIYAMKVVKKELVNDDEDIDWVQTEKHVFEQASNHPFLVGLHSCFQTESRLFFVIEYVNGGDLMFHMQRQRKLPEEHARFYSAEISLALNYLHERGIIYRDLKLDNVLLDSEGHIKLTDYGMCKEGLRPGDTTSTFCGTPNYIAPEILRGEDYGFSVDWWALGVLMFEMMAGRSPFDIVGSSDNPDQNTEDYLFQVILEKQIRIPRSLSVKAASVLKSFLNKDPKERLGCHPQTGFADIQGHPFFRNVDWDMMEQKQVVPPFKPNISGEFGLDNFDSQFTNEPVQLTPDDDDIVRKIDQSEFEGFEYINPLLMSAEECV
In words: PKCι IC50 IMAP fluorescence polarisation assay, full-length enzyme, 150 μM ATP. In kind it is biochemical. Particulars: read-out: IC50 in IMAP assay against full length PKCi at 150 μM ATP. Put shortly: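 IMAP fluorescence polarisation kinase assay: 15 pM baculovirus-expressed human PKCiota with 100 nM FAM-pseudosubstrate peptide and 150 μM ATP, 1 h at 25 °C. IMAP detection reagent then 2 h at 25 °C before FP measurement. Inhibition referenced to no-compound and no-enzyme controls for IC50 fitting.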
On the technique in general: In fluorescence polarisation assays a small probe gives low polarisation when free and higher when bound to something large.
As to `CCSc1cc2c(-c3nc(N4CCNCC4)c4c(C5CCC5)cncc4n3)ccnc2[nH]1` [Example 133, 5-Cyclobutyl-2-(2-ethylsulfanyl-1H-pyrrolo[2,3-b]pyridin-4-yl)-4-piperazin-1-yl-pyrido[3,4-d]pyrimidine], the IC50 (in general, the concentration that gives 50% inhibition) was less than 100 nM.

Consider `CC1(C)CNCCC1Nc1nc(-c2ccnc(Nc3nc(F)c(F)cc3F)c2)nc2cncc(C3CCC3)c12` (stereo not shown) [Example 71, {5-Cyclobutyl-2-[2-(3,5,6-trifluoro-pyridin-2-ylamino)-pyridin-4-yl]-pyrido[3,4-d]pyrimidin-4-yl}-(3,3-dimethyl-piperidin-4-yl)-amine], for which the IC50 was less than 100 nM.

Consider `FC(F)(F)c1cc2c(-c3nc(N4CCOC5CNCC54)c4c(C5CC5)cncc4n3)ccnc2[nH]1` (stereo not shown) [Example 155, 5-Cyclopropyl-4-(hexahydro-pyrrolo[3,4-b] [1,4]oxazin-4-yl)-2-(2-trifluoromethyl-1H-pyrrolo[2,3-b]pyridin-4-yl)-pyrido[3,4-d]pyrimidine], for which the concentration for half-maximal inhibition (IC50) was less than 100 nM.

As to `CN(c1nc(-c2ccnc3[nH]c(C(=O)NC4CCCCC4)cc23)nc2cncc(C3CC3)c12)C1CCNCC1(C)C` (stereo not shown) [Example 66, 4-{5-Cyclopropyl-4-[(3,3-dimethyl-piperidin-4-yl)-methyl-amino]-pyrido[3,4-d]pyrimidin-2-yl}-1H-pyrrolo[2,3-b]pyridine-2-carboxylic acid cyclohexylamide], the IC50 was less than 100 nM.

On to `CC1(C)CNCC[C@@H]1Nc1nc(-c2ccnc(Nc3nc(F)ccc3F)c2)nc2cncc(C3CC3)c12` [Example 158, {5-Cyclopropyl-2-[2-(3,6-difluoro-pyridin-2-ylamino)-pyridin-4-yl]-pyrido[3,4-d]pyrimidin-4-yl}-((S)-3,3-dimethyl-piperidin-4-yl)-amine], for which the IC50 was less than 100 nM.

For the molecule `c1ccn2nc(Nc3cc(-c4nc(N5CCC6NCCCC65)c5c(C6CC6)cncc5n4)ccn3)nc2c1` (stereo not shown) [Example 244, {4-[5-Cyclopropyl-4-(octahydro-pyrrolo[3,2-b]pyridin-1-yl)-pyrido[3,4-d]pyrimidin-2-yl]-pyridin-2-yl}-[1,2,4]triazolo[1,5-a]pyridin-2-yl-amine], the 50% inhibitory concentration (IC50) is less than 100 nM.

Regarding `C[C@@H]1CNCC[C@H]1Nc1nc(-c2ccnc(Nc3nc(F)ccc3F)c2)nc2cncc(C3CCC3)c12` (single isomer, unassigned) [Example 279, {5-Cyclobutyl-2-[2-(3,6-difluoro-pyridin-2-ylamino)-pyridin-4-yl]-pyrido[3,4-d]pyrimidin-4-yl}-((3R,4R)-3-methyl-piperidin-4-yl)-amine or enantiomer], the half-inhibitory concentration (IC50) is less than 100 nM.

For the molecule `C[C@@H]1CNCC[C@H]1Nc1nc(-c2ccnc(Nc3ncc(F)cc3F)c2)nc2cncc(C3CCC3)c12` (racemic) [Example 290, {5-Cyclobutyl-2-[2-(3,5-difluoro-pyridin-2-ylamino)-pyridin-4-yl]-pyrido[3,4-d]pyrimidin-4-yl}-(rac-(3R,4R)-3-methyl-piperidin-4-yl)-amine], the IC50 is less than 100 nM.

For `Clc1ccc(-c2cc3c(-c4nc(N5CCNCC5)c5c(C6CC6)cncc5n4)ccnc3[nH]2)cc1` [Example 139, 2-[2-(4-Chloro-phenyl)-1H-pyrrolo[2,3-b]pyridin-4-yl]-5-cyclopropyl-4-piperazin-1-yl-pyrido[3,4-d]pyrimidine], the IC50 is less than 100 nM.

As for `CC1(C)CNCC[C@@H]1Nc1nc(-c2ccnc(Nc3ncc(C#N)cc3F)c2)nc2cncc(C3CC3)c12` [Example 333, 6-[[4-[5-Cyclopropyl-4-[[(4S)-3,3-dimethyl-4-piperidyl]amino]pyrido[3,4-d]pyrimidin-2-yl]-2-pyridyl]amino]-5-fluoro-pyridine-3-carbonitrile], the IC50 is less than 100 nM.

For the molecule `NC1CCN(c2nc(-c3ccnc4[nH]c5ccccc5c34)nc3cncc(C(F)(F)F)c23)C1` (stereo not shown) [Example 221, 1-[2-(9H-Pyrido[2,3-b]indol-4-yl)-5-trifluoromethyl-pyrido[3,4-d]pyrimidin-4-yl]-pyrrolidin-3-ylamine], the IC50 was in the range of 100 to 1000 nM.

Regarding `O[C@]12CCN(c3nc(-c4ccnc5[nH]c6ccccc6c45)nc4cncc(C5CC5)c34)[C@H]1CCNC2` (racemic) [Example 113, (±)-(3aS,7aS)-1-[5-Cyclopropyl-2-(9H-pyrido[2,3-b]indol-4-yl)-pyrido[3,4-d]pyrimidin-4-yl]-octahydro-pyrrolo [3,2-c]pyridin-3a-ol], the IC50 was less than 100 nM.

For `CC1(C)CNCC[C@@H]1Nc1nc(-c2ccnc(Nc3nc4ccccc4o3)c2)nc2cncc(C3CCC3)c12` [Example 274, {2-[2-(Benzoxazol-2-ylamino)-pyridin-4-yl]-5-cyclobutyl-pyrido[3,4-d]pyrimidin-4-yl}-((S)-3,3-dimethyl-piperidin-4-yl)-amine], the concentration for half-maximal inhibition (IC50) is less than 100 nM.

As to `O=S(=O)(Nc1cc(-c2nc(N3CCNCC3)c3c(C4CC4)cncc3n2)ccn1)c1ccc(F)cc1` [Example 65, N-[4-(5-Cyclopropyl-4-piperazin-1-yl-pyrido[3,4-d]pyrimidin-2-yl)-pyridin-2-yl]-4-fluoro-benzenesulfonamide], the IC50 was in the range of 100 to 1000 nM.

As for `C[C@@H]1CNCC[C@@H]1Nc1nc(-c2ccnc(Nc3nc(F)cc(F)c3F)c2)nc2cncc(C3CC3)c12` (racemic) [Example 301, {5-Cyclopropyl-2-[2-(3,4,6-trifluoro-pyridin-2-ylamino)-pyridin-4-yl]-pyrido[3,4-d]pyrimidin-4-yl}-(rac-(3R,4S)-3-methyl-piperidin-4-yl)-amine], the IC50 was less than 100 nM.

As to `CC1(C)CNCC[C@@H]1Nc1nc(-c2ccnc(Nc3ncc(Cl)cc3Cl)c2)nc2cncc(C3CC3)c12` [Example 340, 5-Cyclopropyl-2-[2-[(3,5-dichloro-2-pyridyl)amino]-4-pyridyl]-N-[(4S)-3,3-dimethyl-4-piperidyl]pyrido[3,4-d]pyrimidin-4-amine], the half-inhibitory concentration (IC50) was less than 100 nM.

Take `O[C@H]1CNCC[C@H]1Nc1nc(-c2ccnc(Nc3nc(F)cc(F)c3F)c2)nc2cncc(C3CC3)c12` (racemic) [Example 307, rac-(3S,4R)-4-{5-Cyclopropyl-2-[2-(3,4,6-trifluoro-pyridin-2-ylamino)-pyridin-4-yl]-pyrido[3,4-d]pyrimidin-4-ylamino}-piperidin-3-ol]: the 50% inhibitory concentration (IC50) was less than 100 nM.

In the case of `CC(C)(C)c1nc(-c2cc3c(-c4nc(N5CC[C@H]6NCC[C@H]65)c5c(C6CC6)cncc5n4)ccnc3[nH]2)cs1` (racemic) [Example 34, (±)-2-[2-(2-tert-Butyl-thiazol-4-yl)-1H-pyrrolo[2,3-b]pyridin-4-yl]-5-cyclopropyl-4-(3,6-cis)-hexahydro-pyrrolo[3,2-b]pyrrol-1-yl-pyrido[3,4-d]pyrimidine], the IC50 was less than 100 nM.

Consider `CC1(C)CNCC[C@@H]1Nc1nc(-c2ccnc3[nH]c(C(=O)N4CCCCCC4)cc23)nc2cncc(C3CC3)c12` [Example 363, Azepan-1-yl-{4-[5-cyclopropyl-4-((S)-3,3-dimethyl-piperidin-4-ylamino)-pyrido[3,4-d]pyrimidin-2-yl]-1H-pyrrolo[2,3-b]pyridin-2-yl}-methanone], for which the IC50 is less than 100 nM.

With `OC1(c2cc3c(-c4nc(N5CCNCC5)c5c(C6CCC6)cncc5n4)ccnc3[nH]2)CCSC1` (stereo not shown) [Example 13, 3-[4-(5-Cyclobutyl-4-piperazin-1-yl-pyrido[3,4-d]pyrimidin-2-yl)-1H-pyrrolo[2,3-b]pyridin-2-yl]-tetrahydro-thiophen-3-ol], the IC50 is less than 100 nM.

With `c1cncc(-c2cc3c(-c4nc(N5CCNCC5)c5c(C6CC6)cncc5n4)ccnc3[nH]2)c1` [Example 58, 5-Cyclopropyl-4-piperazin-1-yl-2-(2-pyridin-3-yl-1H-pyrrolo[2,3-b]pyridin-4-yl)-pyrido[3,4-d]pyrimidine], the IC50 is less than 100 nM.

In the case of `CC1(C)CNCC[C@@H]1Nc1nc(-c2ccnc(Nc3ncccc3Cl)c2)nc2cncc(C3CC3)c12` [Example 339, 2-[2-[(3-Chloro-2-pyridyl)amino]-4-pyridyl]-5-cyclopropyl-N-[(4S)-3,3-dimethyl-4-piperidyl]pyrido[3,4-d]pyrimidin-4-amine], the IC50 lay in the range of 100 to 1000 nM.

Take `CC1(C)CNCC[C@@H]1Nc1nc(-c2cccc(Nc3ccccn3)c2)nc2cncc(C3CCC3)c12` [Example 321, {5-Cyclobutyl-2-[3-(pyridin-2-ylamino)-phenyl]-pyrido[3,4-d]pyrimidin-4-yl}-((S)-3,3-dimethyl-piperidin-4-yl)-amine]: the IC50 was in the range of 100 to 1000 nM.

`C[C@@H]1CNCC[C@H]1Nc1nc(-c2ccnc(Nc3nc(F)ccc3F)c2)nc2cncc(C3CC3)c12` (single isomer, unassigned) [Example 335, 5-Cyclopropyl-2-[2-[(3,6-difluoro-2-pyridyl)amino]-4-pyridyl]-N-[(3R,4R)-3-methyl-4-piperidyl]pyrido[3,4-d]pyrimidin-4-amine or enantiomer]: the IC50 was less than 100 nM.

Consider `CC1(C)CNCC[C@@H]1Nc1nc(-c2ccnc(Nc3nc4ccccc4o3)c2)nc2cncc(C3CC3)c12` [Example 327, N-[4-[5-Cyclopropyl-4-[[(4S)-3,3-dimethyl-4-piperidyl]amino]pyrido[3,4-d]pyrimidin-2-yl]-2-pyridyl]-1,3-benzoxazol-2-amine], for which the half-maximal inhibitory concentration (IC50) is less than 100 nM.
